# Data published in ChEMBL document CHEMBL1201862, “PubChem BioAssay data set” (2004).
# “And” between values parts separate entries of the source, which are not always exact repeats. Equal values may be shown once.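 Tested at 5 concentrations; 48 h exposure; 96-well plates; endpoints linearly interpolated, else capped at highest concentration. GI50 = concentration required for 50% inhibition of growth.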 The source made the active and inactive calls. No stated cut-off is given here; in the data, active = GI50 up to about 1.1 µM and inactive = higher.
# Assays:
# Assay in all cases: DTP human tumour cell line panel, 48 h
# [1] = system: NCI-H226
# [2] = system: HT-29
# [3] = system: EKVX
# [4] = system: OVCAR-8
# [5] = system: RXF 393
# [6] = system: MOLT-4
# [7] = system: Malme-3M
# [8] = system: OVCAR-4
# [9] = system: UACC-257
# [10] = system: HCT-15
# [11] = system: OVCAR-5
# [12] = system: SK-MEL-28
# [13] = system: NCI-H522
# [14] = system: 786-0
# [15] = system: HOP-92
# [16] = system: SF-268
# [17] = system: KM12
# [18] = system: A549
# [19] = system: BT-549
# [20] = system: MDA-N
SMILES,GI50 [1],GI50 [2],GI50 [3],GI50 [4],GI50 [5],GI50 [6],GI50 [7],GI50 [8],GI50 [9],GI50 [10],GI50 [11],GI50 [12],GI50 [13],GI50 [14],GI50 [15],GI50 [16],GI50 [17],GI50 [18],GI50 [19],GI50 [20]
O=C(CCC(NC(=O)OCc1ccccc1)C(=O)OCc1ccccc1)Nc1ccc(OCc2ccccc2)cc1 (stereo not drawn),> 31.6 µM (inactive),26.6 µM (inactive),> 31.6 µM (inactive),14.1 µM (inactive),28.3 µM (inactive),24.6 µM (inactive),> 31.6 µM (inactive),25.2 µM (inactive),> 31.6 µM (inactive),13.1 µM,> 100 µM (inactive),> 31.6 µM (inactive),> 100 µM (inactive),12.6 µM (inactive),> 31.6 µM (inactive),26.4 µM (inactive),> 31.6 µM (inactive),19.3 µM (inactive),> 10 µM (inactive),–
CSc1nc(NC(C)C)c2c(n1)Sc1nc3ccccc3n1N=C2,0.57 µM (active),21 µM (inactive),21.1 µM (inactive),4.92 µM (inactive),–,9.84 µM (inactive),9.18 µM (inactive),3.85 µM (inactive),29.1 µM (inactive),36.8 µM,31.3 µM (inactive),> 100 µM (inactive),22.9 µM (inactive),4.23 µM (inactive),11.1 µM (inactive),25.7 µM (inactive),16.5 µM (inactive),5.33 µM (inactive),18.7 µM (inactive),27 µM (inactive)
Oc1ccc(Br)cc1/C=N/c1c(NC2CCCCC2)oc2ccc(Br)cc12,45.3 µM (inactive),26.8 µM (inactive),45.1 µM (inactive),37.4 µM (inactive),12.9 µM (inactive),7.21 µM (inactive),31.7 µM (inactive),38 µM (inactive),37.8 µM (inactive),25.1 µM,63.1 µM (inactive),41.5 µM (inactive),–,37.8 µM (inactive),–,33.2 µM (inactive),21 µM (inactive),54 µM (inactive),25.5 µM (inactive),32.6 µM (inactive)
CN1C(=O)C(C(N)=O)C2CC1(C)Oc1ccccc12 (stereo not drawn),> 100 µM (inactive),> 100 µM (inactive),> 100 µM (inactive),> 100 µM (inactive),> 100 µM (inactive),> 100 µM (inactive),> 100 µM (inactive),> 100 µM (inactive),> 100 µM (inactive),> 100 µM,> 100 µM (inactive),> 100 µM (inactive),> 100 µM (inactive),> 100 µM (inactive),> 100 µM (inactive),> 100 µM (inactive),> 100 µM (inactive),> 100 µM (inactive),> 100 µM (inactive),–
O=C(NCCCCNCCCNC(=O)OCc1ccccc1)OCc1ccccc1,32 µM (inactive),18 µM (inactive),51.6 µM (inactive),26.8 µM (inactive),16.5 µM (inactive),26.9 µM (inactive),–,80.2 µM (inactive),19.2 µM (inactive),61.5 µM,85.1 µM (inactive),18.4 µM (inactive),21.2 µM (inactive),21.9 µM (inactive),22.7 µM (inactive),69.5 µM (inactive),32 µM (inactive),64.4 µM (inactive),55 µM (inactive),–
Cc1cc(-c2cc(C)c(O)c(C(C)(C)C)c2)cc(C(C)(C)C)c1O,10.7 µM (inactive) and 19.8 µM (inactive),3.24 µM (inactive) and 3.82 µM (inactive),14.8 µM (inactive) and 10.8 µM (inactive),15.4 µM (inactive) and 13.4 µM (inactive),13.4 µM (inactive) and 11 µM (inactive),5.79 µM (inactive) and 5.86 µM (inactive),14.6 µM (inactive) and 21.4 µM (inactive),12.4 µM (inactive) and 11.6 µM (inactive),11.8 µM (inactive),–,14.5 µM (inactive) and 11.9 µM (inactive),16.7 µM (inactive) and 12 µM (inactive),10.5 µM (inactive) and 12.3 µM (inactive),10.7 µM (inactive) and 13.1 µM (inactive),–,13.9 µM (inactive) and 11.7 µM (inactive),6.07 µM (inactive) and 9.06 µM (inactive),9.27 µM (inactive) and 9.59 µM (inactive),14.1 µM (inactive) and 13.1 µM (inactive),14.7 µM (inactive) and 8.65 µM (inactive)
CCc1nn(S(=O)(=O)c2ccc(C)cc2)c2c1CS(=O)(=O)CC2,–,> 100 µM (inactive),89.7 µM (inactive),34.9 µM (inactive),> 100 µM (inactive),> 100 µM (inactive),–,> 100 µM (inactive),> 100 µM (inactive),> 100 µM,> 100 µM (inactive),> 100 µM (inactive),–,> 100 µM (inactive),–,37.1 µM (inactive),> 100 µM (inactive),> 100 µM (inactive),> 100 µM (inactive),> 100 µM (inactive)
COC1=C(OC)C(=O)C(C/C=C/c2c(Cl)nc3sccn23)=C(C)C1=O,–,20.7 µM (inactive),11.2 µM (inactive),10.4 µM (inactive),18.4 µM (inactive),1.69 µM (inactive),3.75 µM (inactive),0.398 µM (active),0.536 µM (active),26.5 µM,16.9 µM (inactive),17.9 µM (inactive),15.1 µM (inactive),21.5 µM (inactive),–,16 µM (inactive),17.5 µM (inactive),11.2 µM (inactive),15 µM (inactive),6.38 µM (inactive)
[N-]=[N+]=NC1=C(c2ccccn2)C(=O)c2cccc3cccc1c23,–,21.1 µM (inactive),–,–,37.2 µM (inactive),1.77 µM (inactive),49.2 µM (inactive),31.1 µM (inactive),32.8 µM (inactive),29 µM,79.6 µM (inactive),> 100 µM (inactive),–,25.2 µM (inactive),29.9 µM (inactive),12 µM (inactive),25.4 µM (inactive),27.7 µM (inactive),27.3 µM (inactive),53.8 µM (inactive)
CCOC(=O)/C=C(/C=C\COC1CCCCO1)c1ccccc1 (stereo not drawn),70.6 µM (inactive),15.8 µM (inactive),43.3 µM (inactive),23.1 µM (inactive),16.1 µM (inactive),20.4 µM (inactive),84.7 µM (inactive),31.5 µM (inactive),56.1 µM (inactive),27.4 µM,96.2 µM (inactive),30 µM (inactive),21.7 µM (inactive),24.7 µM (inactive),–,32.1 µM (inactive),25.2 µM (inactive),38.4 µM (inactive),41.1 µM (inactive),31.3 µM (inactive)
Nc1cccc(CCN2CCN(CCCc3ccccc3)CC2)c1,70 µM (inactive),13.7 µM (inactive),> 100 µM (inactive),22.6 µM (inactive),21.2 µM (inactive),30.5 µM (inactive),21 µM (inactive),39.9 µM (inactive),24.2 µM (inactive),18 µM,> 100 µM (inactive),27.5 µM (inactive),16.5 µM (inactive),18.2 µM (inactive),4.11 µM (inactive),58.2 µM (inactive),24.9 µM (inactive),34.4 µM (inactive),52.5 µM (inactive),–
COc1cc(NS(C)(=O)=O)ccc1N1Cc2c[nH]c3ccc4nccc1c4c23,29 µM (inactive),30.8 µM (inactive),> 100 µM (inactive),35.1 µM (inactive),–,22.3 µM (inactive),–,61.2 µM (inactive),37.2 µM (inactive),> 100 µM,30 µM (inactive),36 µM (inactive),15.5 µM (inactive),30.8 µM (inactive),26.1 µM (inactive),19.1 µM (inactive),34.4 µM (inactive),> 100 µM (inactive),42.9 µM (inactive),28.7 µM (inactive)
CC1OC(=O)C(C(C)C)NC(=O)C(C(C)C)OC(=O)C(C(C)C)NC(=O)C(C)OC(=O)C(C(C)C)NC(=O)C(C(C)C)OC(=O)C(C(C)C)NC(=O)C(C)OC(=O)C(C(C)C)NC(=O)C(C(C)C)OC(=O)C(C(C)C)NC1=O (stereo not drawn),–,0.0025 µM (active),0.0198 µM (active),0.0025 µM (active),0.00324 µM (active),0.0025 µM (active),0.0025 µM (active),–,0.0025 µM (active),0.0034 µM,–,0.0025 µM (active),–,< 0.0001 µM (active),0.00255 µM (active),0.00314 µM (active),0.00272 µM (active),–,< 0.0001 µM (active),< 0.0001 µM (active)
CC(=O)/C(=C\n1c(=S)[nH]c2ccc([N+](=O)[O-])cc21)C(=O)Nc1ccccc1C,> 100 µM (inactive),> 100 µM (inactive),> 100 µM (inactive),> 100 µM (inactive),> 100 µM (inactive),> 100 µM (inactive),> 100 µM (inactive),> 100 µM (inactive),> 100 µM (inactive),> 100 µM,> 100 µM (inactive),> 100 µM (inactive),> 100 µM (inactive),> 100 µM (inactive),–,–,–,> 100 µM (inactive),33.3 µM (inactive),> 100 µM (inactive)
Cc1ccc(-n2nnc(C#N)c2O)cc1,> 100 µM (inactive),> 100 µM (inactive),> 100 µM (inactive),> 100 µM (inactive),> 100 µM (inactive),> 100 µM (inactive),> 100 µM (inactive),> 100 µM (inactive),> 100 µM (inactive),> 100 µM,> 100 µM (inactive),> 100 µM (inactive),> 100 µM (inactive),> 100 µM (inactive),–,> 100 µM (inactive),> 100 µM (inactive),> 100 µM (inactive),> 100 µM (inactive),> 100 µM (inactive)
